The values that follow come from patent publication US7825126B2 (The United States of America as represented by the …, priority 2004, dated 2010).

Assay [1] concerns the target T1, human A2B adenosine receptor (hA2BAR) (Homo sapiens, UniProt P29275).
T1 sequence (P29275 1-332): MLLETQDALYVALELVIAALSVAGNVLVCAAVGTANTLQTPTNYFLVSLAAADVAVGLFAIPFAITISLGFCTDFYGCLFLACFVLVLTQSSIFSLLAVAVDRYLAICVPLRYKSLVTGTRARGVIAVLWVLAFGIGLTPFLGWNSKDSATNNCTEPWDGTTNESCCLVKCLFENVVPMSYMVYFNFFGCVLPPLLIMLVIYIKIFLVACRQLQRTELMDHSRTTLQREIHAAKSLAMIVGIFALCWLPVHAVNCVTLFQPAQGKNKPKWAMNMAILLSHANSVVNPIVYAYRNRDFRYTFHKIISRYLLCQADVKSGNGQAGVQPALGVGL
The assay can be described thus: Activation of human A2B adenosine receptor at 10 μM. It counts as cell-based. Conditions: CHO cells.

For another assay, the target named is T2, human A2A receptors (Homo sapiens, UniProt P29274).
T2 construct: expressed in transfected cells
The assay can be described thus: Binding at human A2A adenosine receptor ([3H]CGS21680, HEK-293 cell membranes). Conditions: [3H]CGS 21680; for Ki: mean ± s.e.m., n = 3-5, read-out: Ki(hA2AAR).

A further assay addresses T3, human A1 receptors (Homo sapiens, UniProt P30542).
T3 construct: expressed in transfected cells
T3 sequence (P30542 1-326): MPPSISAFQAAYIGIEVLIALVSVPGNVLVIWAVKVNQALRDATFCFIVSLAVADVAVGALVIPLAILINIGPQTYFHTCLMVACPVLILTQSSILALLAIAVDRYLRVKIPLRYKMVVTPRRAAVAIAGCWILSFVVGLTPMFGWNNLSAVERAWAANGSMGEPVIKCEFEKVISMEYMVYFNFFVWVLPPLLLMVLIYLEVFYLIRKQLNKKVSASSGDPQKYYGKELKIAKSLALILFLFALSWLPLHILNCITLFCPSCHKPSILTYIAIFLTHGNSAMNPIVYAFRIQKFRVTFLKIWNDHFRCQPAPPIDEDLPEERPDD
The assay can be described thus: Binding at human A1 adenosine receptor ([3H]R-PIA, CHO cell membranes). To be noted: for Ki: mean ± s.e.m., n = 3-5, read-out: Ki(hA1AR).

Assay [2] addresses T4, human A3 adenosine receptor (Homo sapiens, UniProt P0DMS8).
T4 sequence (P0DMS8 1-318): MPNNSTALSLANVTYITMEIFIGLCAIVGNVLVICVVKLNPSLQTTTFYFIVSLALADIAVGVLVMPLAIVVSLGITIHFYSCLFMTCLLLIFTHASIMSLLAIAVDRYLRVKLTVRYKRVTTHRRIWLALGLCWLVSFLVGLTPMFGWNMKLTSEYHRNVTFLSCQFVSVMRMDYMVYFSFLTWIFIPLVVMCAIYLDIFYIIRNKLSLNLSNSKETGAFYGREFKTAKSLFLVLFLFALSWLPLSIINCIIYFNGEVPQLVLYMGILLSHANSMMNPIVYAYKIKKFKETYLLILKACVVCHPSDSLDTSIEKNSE
The assay can be described thus: Cyclic AMP accumulation assay (inhibition of forskolin-stimulated cAMP), CHO cells expressing human A3 adenosine receptor. To be noted: 10 μM, relative to 10 μM Cl-IB-MECA.
Protocol: The cyclic AMP accumulation assay was performed as follows. Intracellular cyclic AMP levels were measured with a competitive protein binding method. […] After centrifugation and resuspension in medium, cells were plated in 24-well plates in 1.0 ml medium. […] The reaction was terminated by removing the supernatant, and cells were lysed upon the addition of 200 μL of 0.1 M ice-cold HCl. The cell lysate was resuspended and stored at −20° C. For determination of cyclic AMP production, protein kinase A (PKA) was incubated with [^3H]cyclic AMP (2 nM) in K2HPO4/EDTA buffer (K2HPO4, 150 mM; EDTA, 10 mM), 20 μL of the cell lysate, and 30 μL 0.1 M HCl or 50 μL of cyclic AMP solution (0-16 pmol/200 μL for standard curve). Bound radioactivity was separated by rapid filtration through Whatman GF/C filters and washed once with cold buffer. Bound radioactivity was measured by liquid scintillation spectrometry.
Forskolin (10 μM) was used to stimulate cyclic AMP levels.

The target in assay [3] is T4, human A3 adenosine receptor. Set-up: expressed in transfected cells; host or cells: CHO cells. To be noted: relative to 10 μM Cl-IB-MECA, data from literature (footnotes c, d, e, f); cited from earlier work.
Assay [4] shares this target. The assay can be described thus: Binding at human A3 adenosine receptor ([125I]I-AB-MECA, CHO cell membranes). Set-up: expressed in transfected cells; host or cells: CHO cells. Conditions: [125I]I-AB-MECA; mean ± s.e.m., n = 3-5; read-out: Ki(hA3AR).
Protocol: Striatal and forebrain tissues from Wistar rats were homogenized in ice-cold 50 mM Tris-HCl buffer, pH 7.4, using an electric homogenizer. The homogenate was centrifuged at 20,000 g for 10 min at 4° C., and the pellet was washed in fresh buffer. The final pellet was stored at −80° C. until the binding experiments. The protein concentration was measured using the Bradford assay. […] The mixtures were incubated at 37° C. for 60 min. […] Filters were washed three times with 9 ml ice-cold buffer. Radioactivity was determined in a Beckman 5500B γ-counter. Statistical analysis Binding and functional parameters were calculated using Prism 5.0 software (GraphPAD, San Diego, Calif., USA). IC50 values obtained from competition curves were converted to Ki values using the Cheng-Prusoff equation.

Structures are written as SMILES. Read-outs that look alike come from different tables or passages of the source.

For orientation: Ki means a measure of affinity in units of concentration, obtained from inhibition or displacement.

T2 sequence (P29274 whole entry): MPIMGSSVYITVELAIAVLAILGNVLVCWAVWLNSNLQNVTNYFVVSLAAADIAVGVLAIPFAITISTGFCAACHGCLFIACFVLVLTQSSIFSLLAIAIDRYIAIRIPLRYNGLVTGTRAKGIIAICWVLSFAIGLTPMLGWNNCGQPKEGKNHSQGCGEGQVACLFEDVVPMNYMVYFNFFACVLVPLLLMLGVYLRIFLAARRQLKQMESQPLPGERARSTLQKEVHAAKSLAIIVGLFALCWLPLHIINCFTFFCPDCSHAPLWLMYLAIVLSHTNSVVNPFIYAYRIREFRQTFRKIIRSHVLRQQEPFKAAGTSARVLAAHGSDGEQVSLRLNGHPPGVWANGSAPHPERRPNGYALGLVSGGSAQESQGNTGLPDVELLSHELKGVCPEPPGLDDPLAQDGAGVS
Protocol for human A1 receptors: (§1) Binding assays at the A1 and A2A receptors. […] Reaction was terminated by filtration with GF/B filters.
(§2) Statistical analysis Binding and functional parameters were calculated using Prism 5.0 software (GraphPAD, San Diego, Calif., USA). IC50 values obtained from competition curves were converted to Ki values using the Cheng-Prusoff equation.
Protocol for human A2A receptors: as §1, §2

Turning to `CNC(=O)[C@@]12C[C@@H]1[C@@H](n1cnc3c(N[C@@H]4C[C@H]4c4ccccc4)nc(Cl)nc31)[C@H](O)[C@@H]2O` (relative stereo) [Compound 33, (1′S,2′R,3′S,4′R,5′S)-(4′-{2-chloro-6-[(trans-2-phenylcyclopropyl)amino]purin-9-yl}-2′,3′-dihydroxybicyclo[3.1.0]hexyl)-N-methylcarboxamide], the “% Activation (hA2BAR) at 10 μM” value in assay [1] came to 48%. Besides, the inhibitory constant (Ki) on human A2A receptors was 4800 ± 200 nM.
With `CNC(=O)[C@@]12C[C@@H]1[C@@H](n1cnc3c(NCc4cccc(I)c4)nc(Cl)nc31)[C@H](O)[C@@H]2O` [Compound 4, reference compound], the Ki was found to be 65 ± 17 nM on human A1 receptors and 1600 ± 400 nM at human A2A receptors. For the same molecule, the “% Activation (hA3AR) at 10 μM” value in assay [2] turned out to be 3 ± 2%.
Regarding `OC[C@H]1O[C@@H](n2cnc3c(NCc4cccc(Cl)c4)ncnc32)[C@H](O)[C@@H]1O` [Compound 8, reference compound], the Ki came out at 20 ± 3 nM on human A1 receptors and 1400 ± 200 nM on human A2A receptors. The “% Activation (hA3AR) at 10 μM” value in assay [3] is given as 80 ± 3^d %.
Consider `CNC(=O)[C@@]12C[C@@H]1[C@H](n1cnc3c(NC)nc(N)nc31)[C@H](O)[C@@H]2O` [Compound 15, (1′S,2′R,3′S,4′S,5′S)-4′-[6-Methylamino-2-amino-purin-9-yl]-2′,3′-dihydroxy-bicyclo[3.1.0]hexane-1′-carboxylic acid methylamide], for which the “% displ. at 10 μM (hA2AAR)” value at human A2A receptors was 17%.
Turning to `CNC(=O)[C@@]12C[C@@H]1[C@@H](n1cnc3c(NCc4cccc(I)c4)ncnc31)[C@H](O)[C@@H]2O` [Compound 16], the Ki on human A1 receptors came to 700 ± 270 nM; on human A2A receptors, 6200 ± 100 nM. Further, in assay [3], the “% Activation (hA3AR) at 10 μM” value is 100^e %.
Consider `CNC(=O)C12CC1C(n1cnc3c(NCc4cccc(F)c4)nc(Cl)nc31)C(O)C2O` (stereo not drawn) [Compound 19, (1′S,2′R,3′S,4′S,5′S)-4′-[6-(3-Fluorobenzylamino)-2-chloro-purin-9-yl]-2′,3′-dihydroxy-bicyclo[3.1.0]hexane-1′-carboxylic acid methylamide], for which the “% Activation (hA2BAR) at 10 μM” value in assay [1] turned out to be 28%. The inhibitory constant (Ki) at human A2A receptors was 5100 ± 200 nM.
The corresponding values for `CNC(=O)[C@@]12C[C@@H]1[C@H](n1cnc3c(NCc4cc(Cl)ccc4Cl)nc(Cl)nc31)[C@H](O)[C@@H]2O` [Compound 20, (1′S,2′R,3′S,4′S,5′S)-4′-[6-(2,5-Dichlorobenzylamino)-2-chloro-purin-9-yl]-2′,3′-dihydroxy-bicyclo[3.1.0]hexane-1′-carboxylic acid methyl amide] are 32% and 1300 ± 100 nM.
The corresponding values for `CNC(=O)C12CC1C(n1cnc3c(NCc4cc(I)ccc4Cl)nc(Cl)nc31)C(O)C2O` (stereo not drawn) [Compound 21, (1′S,2′R,3′S,4′S,5′S)-4′-[6-(2-Chloro-5-iodo-benzylamino)-2-chloro-purin-9-yl]-2′,3′-dihydroxy-bicyclo[3.1.0]hexane-1′-carboxylic acid methylamide] are 58% and 480 ± 20 nM.
On to `CNC(=O)C12CC1C(n1cnc3c(NCc4cc(Cl)ccc4OC)nc(Cl)nc31)C(O)C2O` (stereo not drawn) [Compound 22, (1′S,2′R,3′S,4′S,5′S)-4′-[6-(5-Chloro-2-methoxy-benzylamino)-2-chloro-purin-9-yl]-2′,3′-dihydroxy-bicyclo[3.1.0]hexane-1′-carboxylic acid methylamide], for which the “% Activation (hA2BAR) at 10 μM” value in assay [1] was found to be 37%. Besides, the inhibition constant Ki at human A2A receptors was 1200 ± 100 nM.
On to `CNC(=O)C12CC1C(n1cnc3c(NCc4cc(Cl)ccc4OCC(N)=O)nc(Cl)nc31)C(O)C2O` (stereo not drawn) [Compound 23, (1′S,2′R,3′S,4′S,5′S)-4′-[6-(5-Chloro-2-(aminocarbonylmethyloxy)-benzylamino)-2-chloro-purin-9-yl]-2′,3′-dihydroxy-bicyclo[3.1.0]hexane-1′-carboxylic acid methylamide], for which, at human A2A receptors, the inhibition constant (Ki) is 800 ± 70 nM.
Take `CNC(=O)C12CC1C(n1cnc3c(NCc4cc(I)ccc4OC)nc(Cl)nc31)C(O)C2O` (stereo not drawn) [Compound 25, (1′S,2′R,3′S,4′S,5′S)-4′-[6-(5-Iodo-2-methoxy-benzylamino)-2-chloro-purin-9-yl]-2′,3′-dihydroxy-bicyclo[3.1.0]hexane-1′-carboxylic acid methylamide]: the “% Activation (hA2BAR) at 10 μM” value in assay [1] was 46%. The inhibition constant (Ki) on human A2A receptors was determined as 430 ± 30 nM.
The corresponding values for `CNC(=O)C12CC1C(n1cnc3c(NCc4ccccc4C)nc(Cl)nc31)C(O)C2O` (stereo not drawn) [Compound 27, (1′S,2′R,3′S,4′S,5′S)-4′-[6-(2-Methyl-benzylamino)-2-chloro-purin-9-yl]-2′,3′-dihydroxy-bicyclo[3.1.0]hexane-1′-carboxylic acid methylamide] are 24% and 3800 ± 200 nM.
The corresponding values for `CNC(=O)C12CC1C(n1cnc3c(NCc4cccc(C)c4)nc(Cl)nc31)C(O)C2O` (stereo not drawn) [Compound 28, (1′S,2′R,3′S,4′S,5′S)-4′-[6-(3-Methyl-benzylamino)-2-chloro-purin-9-yl]-2′,3′-dihydroxy-bicyclo[3.1.0]hexane-1′-carboxylic acid methylamide] are 46% and 3700 ± 600 nM.
In the case of `CNC(=O)C12CC1C(n1cnc3c(NCc4cccc(C#CCO)c4)nc(Cl)nc31)C(O)C2O` (stereo not drawn) [Compound 29, (1′S,2′R,3′S,4′S,5′S)-4′-[6-(3-(3-Hydroxypropynyl)-benzylamino)-2-chloro-purin-9-yl]-2′,3′-dihydroxy-bicyclo[3.1.0]hexane-1′-carboxylic acid methylamide], the “% Activation (hA2BAR) at 10 μM” value in assay [1] is 28%. On human A2A receptors, the “% displ. at 10 μM (hA2AAR)” value is on record as 56%.
For the molecule `CNC(=O)C12CC1C(n1cnc3c(NCc4cc(C#CCO)ccc4Cl)nc(Cl)nc31)C(O)C2O` (stereo not drawn) [Compound 30, (1′S,2′R,3′S,4′S,5′S)-4′-[6-(2-Chloro-5-(3-hydroxypropynyl)-benzylamino)-2-chloro-purin-9-yl]-2′,3′-dihydroxy-bicyclo[3.1.0]hexane-1′-carboxylic acid methylamide], at human A1 receptors (10 μM), the “% displ. at 10 μM (hA1AR)” value is listed as 14%. For the same molecule, the inhibitory constant (Ki) in assay [4] was 217 ± 27 nM. Besides, in assay [1], the “% Activation (hA2BAR) at 10 μM” value was 6%. Further, in assay [2], the “% Activation (hA3AR) at 10 μM” value is recorded as 108 ± 5%. Moreover, at human A2A receptors, the “% displ. at 10 μM (hA2AAR)” value is recorded as 12%.
On to `CNC(=O)C12CC1C(n1cnc3c(NCc4ccc(N)cc4)nc(Cl)nc31)C(O)C2O` (stereo not drawn) [Compound 31a, (1′S,2′R,3′S,4′S,5′S)-4′-[6-(4-Amino-benzylamino)-2-chloro-purin-9-yl]-2′,3′-dihydroxy-bicyclo[3.1.0]hexane-1′-carboxylic acid methylamide], for which the “% Activation (hA2BAR) at 10 μM” value in assay [1] was 22%. Also, the “% displ. at 10 μM (hA2AAR)” value on human A2A receptors came to 28%.
Turning to `CNC(=O)[C@@]12C[C@@H]1[C@@H](n1cnc3c(NCc4ccc(N)c(I)c4)nc(Cl)nc31)[C@H](O)[C@@H]2O` [Compound 31b], on human A2A receptors, the inhibition constant (Ki) came to 1100 ± 100 nM.
As to `CNC(=O)C12CC1C(n1cnc3c(NCc4cccnc4)nc(Cl)nc31)C(O)C2O` (stereo not drawn) [Compound 32, (1′S,2′R,3′S,4′S,5′S)-4′-[6-(3-Pyridylmethylamino)-2-chloro-purin-9-yl]-2′,3′-dihydroxy-bicyclo[3.1.0]hexane-1′-carboxylic acid methylamide], in assay [1], the “% Activation (hA2BAR) at 10 μM” value was determined as 4%. Also, at human A2A receptors, the “% displ. at 10 μM (hA2AAR)” value is on record as 33%.
Turning to `CCOC(=O)[C@@]12C[C@@H]1[C@H](n1cnc3c(NCc4cccc(Cl)c4)nc(I)nc31)[C@H](O)[C@@H]2O` [Compound 35, (1′S,2′R,3′S,4′S,5′S)-4′-[6-(3-Chlorobenzylamino)-2-iodo-purin-9-yl]-2′,3′-dihydroxy-bicyclo[3.1.0]hexane-1′-carboxylic acid ethyl ester], the “% displ. at 10 μM (hA2AAR)” value on human A2A receptors amounted to 43%.
As for `CNC(=O)C12CC1C(n1cnc3c(NCc4cccc(Cl)c4)nc(SC)nc31)C(O)C2O` (stereo not drawn) [Compound 36], the “% Activation (hA3AR) at 10 μM” value in assay [2] is recorded as 100 ± 4%. Moreover, on human A2A receptors, the “% displ. at 10 μM (hA2AAR)” value is recorded as 52%.
